A word on the IC50: it is the concentration that inhibits the measured activity by half.

The source of these data is paper PMC9664070, “The anticonvulsant phytocannabinoids CBGVA and CBDVA inhibit recombinant T-type channels” (Frontiers in Pharmacology, 2022).

Data set [1] is described as follows: Plasma and brain exposure at anticonvulsant doses in mice (literature). It counts as in vivo. Conditions: from peak plasma concentration and brain-plasma ratio.
Another data set has as its target T1, GPR55 (Homo sapiens, UniProt Q9Y2T6).
T1 construct: expressed in transfected cells; host or cells: HEK 293
In words: Alphascreen ERK phosphorylation assay, antagonism of ML-186-induced ERK phosphorylation. It counts as cell-based. The following applies: in the presence of EC80 of ML-186 (0.45 µM), HEK 293 GPR55 cells. The procedure:
(§1) Unless otherwise stated, five independent experiments were performed for each condition, with each experiment conducted in duplicate. For the calcium assay, change in fluorescence by 10 mM Ca in the presence of drugs was normalised to change in fluorescence caused by 10 mM Ca in the presence of vehicle only to allow for comparison. In the Alphascreen assay, results were normalised to EC80 of ML-186 after subtraction of basal ERK phosphorylation (presence of a vehicle and 0.2% DMSO) to allow for easy comparison between phytocannabinoid activities. We fitted all concentration-response curves to a 4-parameter sigmoidal inhibitory response curve in GraphPad Prism (Version 6 GraphPad Software Inc., CA, United States) to derive IC50 and Emax values. All statistical analyses were conducted with GraphPad Prism. Two-tailed, unpaired t-tests were used to compare two data points and one-way ANOVA for more than two data points with Tukey post-hoc analysis. p-values < 0.05 were considered statistically significant.
On the technique in general: Bead proximity is the source of the signal in Alpha formats.

Data set [2] has as its system hyperthermia-induced seizures. Further details: method as in earlier work. Conditions: Scn1a+/- mice, ref Anderson et al., 2019, 2021a, 2021b; cited from earlier work.
The subject of another data set is diacylglycerol lipase. Further details: method as in de Petrocellis et al., 2011. Conditions: ref de Petrocellis et al., 2011; cited from earlier work.
The test system of data set [3] is dorsal root ganglion neurons. On the set-up: method as in Straiker et al., 2021. Conditions: ref Straiker et al., 2021; cited from earlier work.
For another data set, the target named is T2, Cav3.1 (Homo sapiens, UniProt O43497).
T2 construct: expressed in transfected cells; host or cells: HEK293 Flp-In T-REx
In words: FLIPR calcium 5 assay, inhibition of 10 mM Ca-induced fluorescence. In kind it is cell-based. The following applies: FLIPR concentration-response, HEK293 Cav3.1 cells; read-out: IC50, inhibition of change in fluorescence, Cav3.1. The procedure: (§2) Calcium 5 dye (Molecular Devices, United States ) was used to investigate compound activities at T-type calcium channels using Flexstation III. HEK293 cells overexpressing Cav3.1, Cav 3.2, and Cav 3.3 cells were resuspended in Leibovitz’s L-15 media containing 1% FBS, 1% P/S and 15 mM glucose. 90 µl of the resuspended cells (120,000 cells/well) were plated in a black-walled, 96-well microplate (Corning, NY, United States ) and incubated overnight in humidified air at 37°C. Channel expression was induced with tetracycline (2 μg/ml, Sigma-Aldrich) at plating. On the day of the assay, 90 µl of HBSS containing 5% Calcium dye (bulk kit) and 2.5 mM probenecid (Invitrogen, United States ) was added to each well and incubated for 1 h at 37°C. Change in fluorescence was measured in a FlexStation III plate reader every 2 s (ʎexcitation = 485 nm, ʎemission = 525 nm) for the duration of the experiment at 37°C. After 2 min baseline recording, drugs (20 µL) were added and read for 5 min, followed by 10 mM CaCl2 (20 µl) and read for a further 3 min.
as §1
(§3) Our investigation of T-type channels began with a single-point screen, as described by [Bladen et al. (2021)]. We screened the inhibitory effect of 10 µM phytocannabinoids on the change in fluorescence elicited by the addition of 10 mM Ca^2+ in cells expressing Cav3.1, Cav3.2 or Cav3.3 channels ([Xie et al., 2007]; [Bladen et al., 2021]).

Another data set addresses T3, Cav3.3 (Homo sapiens, UniProt Q9P0X4).
T3 construct: expressed in transfected cells; host or cells: HEK293 Flp-In T-REx
Described as above. It counts as cell-based. The following applies: 10 µM compound, HEK293 cells, mean ± SEM. The procedure:
as §2, §1, §3

The target in another data set is T4, Cav3.2 (Homo sapiens, UniProt O95180).
T4 construct: expressed in transfected cells; host or cells: HEK293 Flp-In T-REx
T4 sequence (O95180 whole entry): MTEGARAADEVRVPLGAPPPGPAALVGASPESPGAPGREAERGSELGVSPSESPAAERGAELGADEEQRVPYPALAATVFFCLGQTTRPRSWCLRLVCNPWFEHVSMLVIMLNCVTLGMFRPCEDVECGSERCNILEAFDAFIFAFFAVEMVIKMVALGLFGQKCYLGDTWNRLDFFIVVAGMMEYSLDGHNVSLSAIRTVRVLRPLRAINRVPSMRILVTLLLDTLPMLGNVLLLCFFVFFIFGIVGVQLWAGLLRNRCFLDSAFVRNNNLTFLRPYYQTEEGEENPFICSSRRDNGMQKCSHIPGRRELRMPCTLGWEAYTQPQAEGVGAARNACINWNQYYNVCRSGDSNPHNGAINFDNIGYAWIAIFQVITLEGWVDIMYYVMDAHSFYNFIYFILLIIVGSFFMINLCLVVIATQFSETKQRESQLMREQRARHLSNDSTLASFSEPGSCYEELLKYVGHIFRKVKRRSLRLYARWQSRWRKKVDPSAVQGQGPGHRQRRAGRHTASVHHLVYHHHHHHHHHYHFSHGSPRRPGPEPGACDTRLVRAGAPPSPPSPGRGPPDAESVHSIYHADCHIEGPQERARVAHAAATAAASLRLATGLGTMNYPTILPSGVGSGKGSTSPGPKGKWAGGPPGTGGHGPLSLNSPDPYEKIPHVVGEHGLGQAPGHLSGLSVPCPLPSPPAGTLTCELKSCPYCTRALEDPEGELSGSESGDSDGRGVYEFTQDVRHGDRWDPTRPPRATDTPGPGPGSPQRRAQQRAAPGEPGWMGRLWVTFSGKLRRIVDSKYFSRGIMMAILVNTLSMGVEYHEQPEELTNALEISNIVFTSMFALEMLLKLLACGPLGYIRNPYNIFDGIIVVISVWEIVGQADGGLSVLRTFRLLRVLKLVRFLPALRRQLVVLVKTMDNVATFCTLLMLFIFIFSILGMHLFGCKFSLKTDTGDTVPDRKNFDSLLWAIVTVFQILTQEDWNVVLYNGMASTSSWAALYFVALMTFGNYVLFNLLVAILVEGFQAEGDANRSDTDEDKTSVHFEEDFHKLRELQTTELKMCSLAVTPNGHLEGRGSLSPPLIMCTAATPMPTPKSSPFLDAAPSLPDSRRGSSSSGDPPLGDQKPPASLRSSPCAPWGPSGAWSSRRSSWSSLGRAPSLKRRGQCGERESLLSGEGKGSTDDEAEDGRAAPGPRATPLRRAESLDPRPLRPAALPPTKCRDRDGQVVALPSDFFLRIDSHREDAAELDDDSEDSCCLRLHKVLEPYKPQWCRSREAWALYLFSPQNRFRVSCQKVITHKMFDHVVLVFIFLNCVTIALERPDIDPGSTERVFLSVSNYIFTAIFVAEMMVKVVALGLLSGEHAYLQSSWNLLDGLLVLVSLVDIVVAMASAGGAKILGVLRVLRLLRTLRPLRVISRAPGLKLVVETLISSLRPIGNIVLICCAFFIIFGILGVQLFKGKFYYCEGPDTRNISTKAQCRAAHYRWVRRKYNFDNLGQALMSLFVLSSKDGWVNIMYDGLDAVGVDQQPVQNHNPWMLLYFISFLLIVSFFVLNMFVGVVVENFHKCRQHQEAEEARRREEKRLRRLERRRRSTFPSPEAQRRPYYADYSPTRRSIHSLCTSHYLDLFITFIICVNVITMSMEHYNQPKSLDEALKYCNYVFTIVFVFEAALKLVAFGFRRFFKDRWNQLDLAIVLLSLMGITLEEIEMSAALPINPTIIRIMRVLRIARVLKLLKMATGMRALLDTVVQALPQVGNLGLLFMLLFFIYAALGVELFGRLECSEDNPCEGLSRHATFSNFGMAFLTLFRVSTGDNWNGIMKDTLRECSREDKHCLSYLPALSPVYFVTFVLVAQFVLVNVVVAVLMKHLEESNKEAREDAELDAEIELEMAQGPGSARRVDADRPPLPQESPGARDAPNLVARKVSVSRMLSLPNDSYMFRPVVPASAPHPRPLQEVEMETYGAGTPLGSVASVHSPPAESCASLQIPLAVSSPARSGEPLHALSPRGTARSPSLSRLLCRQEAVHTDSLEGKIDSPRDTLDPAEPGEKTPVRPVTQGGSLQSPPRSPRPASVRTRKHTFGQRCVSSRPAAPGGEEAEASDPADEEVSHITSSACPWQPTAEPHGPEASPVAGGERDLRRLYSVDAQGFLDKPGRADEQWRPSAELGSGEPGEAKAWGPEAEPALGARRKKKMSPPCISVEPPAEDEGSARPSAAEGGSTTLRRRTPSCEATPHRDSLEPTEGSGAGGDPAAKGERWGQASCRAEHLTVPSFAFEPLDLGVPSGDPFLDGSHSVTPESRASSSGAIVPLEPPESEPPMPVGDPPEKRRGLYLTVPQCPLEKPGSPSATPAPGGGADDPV
The data set is described as above. Conditions: FLIPR concentration-response, HEK293 Cav3.2 cells; read-out: IC50, inhibition of change in fluorescence, Cav3.2. It counts as cell-based. The procedure:
as §2, §1, §3

T1 sequence (Q9Y2T6 whole entry, species assumed): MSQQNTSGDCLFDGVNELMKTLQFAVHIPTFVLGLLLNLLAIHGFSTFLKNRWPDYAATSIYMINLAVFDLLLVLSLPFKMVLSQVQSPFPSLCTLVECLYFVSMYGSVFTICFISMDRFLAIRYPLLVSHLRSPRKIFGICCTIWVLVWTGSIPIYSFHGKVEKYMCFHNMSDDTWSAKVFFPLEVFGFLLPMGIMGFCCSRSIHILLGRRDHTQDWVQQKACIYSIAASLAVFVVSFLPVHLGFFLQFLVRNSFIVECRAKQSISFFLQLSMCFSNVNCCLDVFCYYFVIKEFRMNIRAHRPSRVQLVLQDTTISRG
T3 sequence (Q9P0X4 whole entry): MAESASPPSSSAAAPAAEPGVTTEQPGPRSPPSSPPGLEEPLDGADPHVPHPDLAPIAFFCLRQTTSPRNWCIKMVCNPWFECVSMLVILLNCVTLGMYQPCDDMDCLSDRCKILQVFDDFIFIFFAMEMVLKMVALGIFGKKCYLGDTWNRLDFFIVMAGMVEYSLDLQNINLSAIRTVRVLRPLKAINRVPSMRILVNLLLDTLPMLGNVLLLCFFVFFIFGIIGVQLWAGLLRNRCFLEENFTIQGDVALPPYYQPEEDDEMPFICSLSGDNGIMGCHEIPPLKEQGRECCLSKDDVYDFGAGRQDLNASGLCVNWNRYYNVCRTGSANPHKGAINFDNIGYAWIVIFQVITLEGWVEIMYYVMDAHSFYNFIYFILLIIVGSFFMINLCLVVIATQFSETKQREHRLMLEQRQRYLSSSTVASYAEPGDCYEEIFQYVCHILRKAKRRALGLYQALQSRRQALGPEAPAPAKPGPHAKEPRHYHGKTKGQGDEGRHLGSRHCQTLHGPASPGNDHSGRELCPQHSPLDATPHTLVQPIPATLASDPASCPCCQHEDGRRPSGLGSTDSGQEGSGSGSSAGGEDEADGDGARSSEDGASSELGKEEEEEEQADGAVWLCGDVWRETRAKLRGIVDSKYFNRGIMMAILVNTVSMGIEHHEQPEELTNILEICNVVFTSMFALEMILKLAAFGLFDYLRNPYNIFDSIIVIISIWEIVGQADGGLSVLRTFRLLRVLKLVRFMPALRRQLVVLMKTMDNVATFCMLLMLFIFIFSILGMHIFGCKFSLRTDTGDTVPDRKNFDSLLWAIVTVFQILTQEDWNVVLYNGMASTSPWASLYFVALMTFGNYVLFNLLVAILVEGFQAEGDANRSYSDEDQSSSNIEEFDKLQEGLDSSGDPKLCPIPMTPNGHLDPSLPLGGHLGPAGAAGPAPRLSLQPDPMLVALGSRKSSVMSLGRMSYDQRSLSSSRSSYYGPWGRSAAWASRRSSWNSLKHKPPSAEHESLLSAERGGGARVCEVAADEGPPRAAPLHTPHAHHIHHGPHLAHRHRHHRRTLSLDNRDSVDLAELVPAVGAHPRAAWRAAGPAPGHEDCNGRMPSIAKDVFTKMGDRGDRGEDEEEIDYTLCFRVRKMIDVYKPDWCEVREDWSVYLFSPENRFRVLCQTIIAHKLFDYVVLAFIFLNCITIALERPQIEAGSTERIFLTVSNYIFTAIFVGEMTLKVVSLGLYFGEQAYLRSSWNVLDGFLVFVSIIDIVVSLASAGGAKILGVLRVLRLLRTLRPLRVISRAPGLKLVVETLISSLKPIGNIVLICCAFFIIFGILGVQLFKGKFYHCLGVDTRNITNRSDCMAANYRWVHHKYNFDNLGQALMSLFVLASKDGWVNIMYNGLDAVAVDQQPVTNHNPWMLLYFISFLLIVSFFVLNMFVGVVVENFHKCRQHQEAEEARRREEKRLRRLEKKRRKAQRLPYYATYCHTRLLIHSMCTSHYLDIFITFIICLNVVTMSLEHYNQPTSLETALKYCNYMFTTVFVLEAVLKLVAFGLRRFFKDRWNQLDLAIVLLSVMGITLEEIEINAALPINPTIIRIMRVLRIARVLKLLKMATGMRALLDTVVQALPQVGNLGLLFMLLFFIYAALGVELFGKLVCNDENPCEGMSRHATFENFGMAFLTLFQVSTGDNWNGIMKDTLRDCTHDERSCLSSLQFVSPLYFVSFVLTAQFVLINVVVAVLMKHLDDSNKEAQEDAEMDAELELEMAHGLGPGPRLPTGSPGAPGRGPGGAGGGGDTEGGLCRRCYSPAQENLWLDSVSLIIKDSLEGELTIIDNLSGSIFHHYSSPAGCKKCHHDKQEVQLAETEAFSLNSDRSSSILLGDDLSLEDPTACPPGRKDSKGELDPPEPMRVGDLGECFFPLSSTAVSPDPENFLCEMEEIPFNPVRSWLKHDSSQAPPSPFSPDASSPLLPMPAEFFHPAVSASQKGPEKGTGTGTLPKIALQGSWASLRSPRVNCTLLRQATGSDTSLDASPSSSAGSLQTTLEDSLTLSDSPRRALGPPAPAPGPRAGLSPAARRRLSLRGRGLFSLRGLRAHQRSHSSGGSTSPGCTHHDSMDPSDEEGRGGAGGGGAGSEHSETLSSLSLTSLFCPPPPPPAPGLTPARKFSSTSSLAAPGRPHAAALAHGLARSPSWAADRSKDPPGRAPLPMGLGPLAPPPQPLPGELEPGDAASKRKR

With `C=C(C)[C@@H]1CCC(C)=C[C@H]1c1c(O)cc(CCC)c(C(=O)O)c1O` [CBDVA, cannabidivarinic acid], in data set [1], the expected brain concentration is recorded as 5 µM. Also, the values for the half-inhibitory concentration (IC50) at GPR55, on Cav3.1 and on Cav3.2 were 10 µM, 2 µM and 11 µM, respectively. In data set [2], the “effect against hyperthermia-induced seizures” value was “anticonvulsant”. Further, the “inhibition of diacylglycerol lipase” value in the data set with diacylglycerol lipase is given as “inhibit the endocannabinoid synthetic enzyme diacylglycerol lipase at a relatively high concentration”. Besides, the “effect on calcium responses” value in data set [3] was “did not alter calcium responses”. At Cav3.3, the “% Inhibition of Fluorescence Cav3.3” value came out at 8 ± 4%.
